PubChem BioAssay AID1259407 (Chemical Carcinogenesis Research Information System (CCRIS), 2018)
Calls of active or inactive are those of the source. The rule behind the calls is not given here.

System: CCRIS mutagenicity, Ames/micronucleus/aberration tests
Assay: CCRIS mutagenicity studies
[1] = Test System: AMES SALMONELLA TYPHIMURIUM, Strain/Indicator: TA98, Metabolic Activation: HAMSTER, LIVER, S-9, AROCLOR 1254, Method: PREINCUBATION
[2] = Test System: AMES SALMONELLA TYPHIMURIUM, Strain/Indicator: TA98, Metabolic Activation: NONE, Method: PREINCUBATION
[3] = Test System: AMES SALMONELLA TYPHIMURIUM, Strain/Indicator: TA98, Metabolic Activation: RAT, LIVER, S-9, AROCLOR 1254, Method: PREINCUBATION
[4] = Test System: AMES SALMONELLA TYPHIMURIUM, Strain/Indicator: TA100, Metabolic Activation: HAMSTER, LIVER, S-9, AROCLOR 1254, Method: PREINCUBATION
[5] = Test System: AMES SALMONELLA TYPHIMURIUM, Strain/Indicator: TA100, Metabolic Activation: NONE, Method: PREINCUBATION
[6] = Test System: AMES SALMONELLA TYPHIMURIUM, Strain/Indicator: TA100, Metabolic Activation: RAT, LIVER, S-9, AROCLOR 1254, Method: PREINCUBATION
[7] = Test System: AMES SALMONELLA TYPHIMURIUM, Strain/Indicator: TA1535, Metabolic Activation: HAMSTER, LIVER, S-9, AROCLOR 1254, Method: PREINCUBATION
[8] = Test System: AMES SALMONELLA TYPHIMURIUM, Strain/Indicator: TA1535, Metabolic Activation: NONE, Method: PREINCUBATION
[9] = Test System: AMES SALMONELLA TYPHIMURIUM, Strain/Indicator: TA1535, Metabolic Activation: RAT, LIVER, S-9, AROCLOR 1254, Method: PREINCUBATION
[10] = Test System: AMES SALMONELLA TYPHIMURIUM, Strain/Indicator: TA1537, Metabolic Activation: HAMSTER, LIVER, S-9, AROCLOR 1254, Method: PREINCUBATION
[11] = Test System: AMES SALMONELLA TYPHIMURIUM, Strain/Indicator: TA1537, Metabolic Activation: NONE, Method: PREINCUBATION
[12] = Test System: AMES SALMONELLA TYPHIMURIUM, Strain/Indicator: TA1537, Metabolic Activation: RAT, LIVER, S-9, AROCLOR 1254, Method: PREINCUBATION
[13] = Test System: AMES SALMONELLA TYPHIMURIUM, Strain/Indicator: TA97, Metabolic Activation: NONE, Method: STANDARD PLATE
[14] = Test System: AMES SALMONELLA TYPHIMURIUM, Strain/Indicator: TA98, Metabolic Activation: NONE, Method: STANDARD PLATE
[15] = Test System: AMES SALMONELLA TYPHIMURIUM, Strain/Indicator: TA98, Metabolic Activation: RAT, LIVER, S-9, AROCLOR 1254, Method: STANDARD PLATE
[16] = Test System: AMES SALMONELLA TYPHIMURIUM, Strain/Indicator: TA100, Metabolic Activation: NONE, Method: STANDARD PLATE
[17] = Test System: AMES SALMONELLA TYPHIMURIUM, Strain/Indicator: TA100, Metabolic Activation: RAT, LIVER, S-9, AROCLOR 1254, Method: STANDARD PLATE
[18] = Test System: AMES SALMONELLA TYPHIMURIUM, Strain/Indicator: TA102, Metabolic Activation: NONE, Method: STANDARD PLATE
[19] = Test System: AMES SALMONELLA TYPHIMURIUM, Strain/Indicator: TA104, Metabolic Activation: NONE, Method: STANDARD PLATE
[20] = Test System: AMES SALMONELLA TYPHIMURIUM, Strain/Indicator: TA1535, Metabolic Activation: RAT, LIVER, S-9, AROCLOR 1254, Method: STANDARD PLATE
[21] = Test System: AMES SALMONELLA TYPHIMURIUM, Strain/Indicator: TA1537, Metabolic Activation: NONE, Method: STANDARD PLATE
[22] = Test System: AMES SALMONELLA TYPHIMURIUM, Strain/Indicator: TA1537, Metabolic Activation: RAT, LIVER, S-9, AROCLOR 1254, Method: STANDARD PLATE
[23] = Test System: AMES SALMONELLA TYPHIMURIUM, Strain/Indicator: TA1538, Metabolic Activation: NONE, Method: STANDARD PLATE

SMILES: CC(=O)NNC(=O)c1ccccn1
- mutagenic call [1]: inactive; negative
- mutagenic call [2]: inactive; negative
- mutagenic call [3]: inactive; negative
- mutagenic call [4]: inactive; negative
- mutagenic call [5]: inactive; negative
- mutagenic call [6]: inactive; negative
- mutagenic call [7]: inactive; negative
- mutagenic call [8]: inactive; negative
- mutagenic call [9]: inactive; negative
- mutagenic call [10]: inactive; negative
- mutagenic call [11]: inactive; negative
- mutagenic call [12]: inactive; negative

SMILES: ClC[C@@]1(C(Cl)Cl)C2[C@@H](Cl)[C@H](Cl)C1(C(Cl)Cl)[C@@H](Cl)[C@@H]2Cl
- mutagenic call [5]: inactive; negative

SMILES: Cc1ncc([N+](=O)[O-])n1C
- mutagenic call [13]: active; positive
- mutagenic call (Test System: AMES SALMONELLA TYPHIMURIUM, Strain/Indicator: TA97, Metabolic Activation: RAT, LIVER, S-9, AROCLOR 1254, Method: STANDARD PLATE): active; positive
- mutagenic call [14]: active; positive
- mutagenic call [15]: active; positive
- mutagenic call [16]: active; positive
- mutagenic call [17]: active; positive
- mutagenic call [18]: active; positive
- mutagenic call (Test System: AMES SALMONELLA TYPHIMURIUM, Strain/Indicator: TA102, Metabolic Activation: RAT, LIVER, S-9, AROCLOR 1254, Method: STANDARD PLATE): active; positive

SMILES: BrCc1ccc2c3c(cccc13)-c1ccccc1-2
- mutagenic call [14]: active; positive
- mutagenic call [16]: active; positive

SMILES: NNc1nnc(NN)c2ccccc12
- mutagenic call [13]: active; positive
- mutagenic call [15]: active; positive
- mutagenic call [17]: inactive; negative
- mutagenic call [18]: active; positive
- mutagenic call [19]: inactive; negative
- mutagenic call [20]: inactive; negative
- mutagenic call [21]: active; positive
- mutagenic call [22]: active; positive
- mutagenic call [23]: active; positive

SMILES: [N-]=[N+]=Nc1nc2ccccc2[nH]1
- mutagenic call [14]: active; positive

SMILES: CCOC(=O)C1C(C=C(C)C)C1(C)C (configuration not stated)
- mutagenic call [14]: inactive; negative
- mutagenic call [15]: inactive; negative
- mutagenic call [16]: inactive; negative
- mutagenic call [17]: inactive; negative
- mutagenic call (Test System: AMES SALMONELLA TYPHIMURIUM, Strain/Indicator: TA1535, Metabolic Activation: NONE, Method: STANDARD PLATE): inactive; negative
- mutagenic call [20]: inactive; negative
- mutagenic call [21]: inactive; negative
- mutagenic call [22]: inactive; negative
- mutagenic call (Test System: E. COLI, Strain/Indicator: WP2, Metabolic Activation: NONE, Method: STANDARD PLATE): inactive; negative
- mutagenic call (Test System: E. COLI, Strain/Indicator: WP2, Metabolic Activation: RAT, LIVER, S-9, AROCLOR 1254, Method: STANDARD PLATE): inactive; negative

SMILES: Cc1ccc2cc3c4c(ccc3c3c2c1C[C@H]3O)[C@H](O)[C@@H](O)C=C4
- mutagenic call (Test System: CHINESE HAMSTER V-79, Strain/Indicator: V-79/8-AZAGUANINE, Metabolic Activation: RAT, LIVER, S-9, AROCLOR, Method: STANDARD PLATE): active; positive

SMILES: O=c1c2cc(O)ccc2oc2cc(O)cc(O)c12
- mutagenic call (Test System: AMES SALMONELLA TYPHIMURIUM, Strain/Indicator: TA97, Metabolic Activation: RAT, LIVER, S-9, PHENOBARBITAL AND 5,6-BENZOFLAVONE, Method: PREINCUBATION): active; positive
- mutagenic call (Test System: AMES SALMONELLA TYPHIMURIUM, Strain/Indicator: TA98, Metabolic Activation: RAT, LIVER, S-9, PHENOBARBITAL AND 5,6-BENZOFLAVONE, Method: PREINCUBATION): inactive; negative
- mutagenic call (Test System: AMES SALMONELLA TYPHIMURIUM, Strain/Indicator: TA100, Metabolic Activation: RAT, LIVER, S-9, PHENOBARBITAL AND 5,6-BENZOFLAVONE, Method: PREINCUBATION): active; positive
- mutagenic call (Test System: AMES SALMONELLA TYPHIMURIUM, Strain/Indicator: TA2637, Metabolic Activation: RAT, LIVER, S-9, PHENOBARBITAL AND 5,6-BENZOFLAVONE, Method: PREINCUBATION): active; positive

SMILES: COc1ccc(OC)cc1
- mutagenic call [1]: inactive; negative
- mutagenic call [2]: inactive; negative
- mutagenic call [3]: inactive; negative
- mutagenic call [4]: inactive; negative
- mutagenic call [5]: inactive; negative
- mutagenic call [6]: inactive; negative
- mutagenic call [7]: inactive; negative
- mutagenic call [8]: inactive; negative
- mutagenic call [9]: inactive; negative
- mutagenic call [10]: inactive; negative
- mutagenic call [11]: inactive; negative
- mutagenic call [12]: inactive; negative

SMILES: CC[C@@]1(O)C[C@H](O[C@H]2C[C@H](N(C)C)[C@H](O[C@H]3C[C@H](O)[C@H](O[C@H]4CCC(=O)[C@H](C)O4)[C@H](C)O3)[C@H](C)O2)c2c(cc3c(c2O)C(=O)c2c(O)cccc2C3=O)[C@H]1C(=O)OC
- mutagenic call [13]: inactive; negative
- mutagenic call [14]: inactive; negative
- mutagenic call [15]: inactive; negative
- mutagenic call [16]: inactive; negative
- mutagenic call [19]: active; positive
- mutagenic call [21]: inactive; negative
- mutagenic call [23]: inactive; negative
- mutagenic call (Test System: AMES SALMONELLA TYPHIMURIUM, Strain/Indicator: TA2637, Metabolic Activation: NONE, Method: STANDARD PLATE): active; positive
- mutagenic call (Test System: E. COLI, Strain/Indicator: WP2 (HCR), Metabolic Activation: NONE, Method: STANDARD PLATE): inactive; negative

SMILES: c1ccc2c(c1)-c1ccc3ccccc3c1C1NC21 (configuration not stated)
- mutagenic call (Test System: AMES SALMONELLA TYPHIMURIUM, Strain/Indicator: TA98, Metabolic Activation: NONE, Method: PREINCUBATION (KCL-CONTAINING OR KCL-FREE MEDIA)): active; positive
- mutagenic call (Test System: AMES SALMONELLA TYPHIMURIUM, Strain/Indicator: TA100, Metabolic Activation: NONE, Method: PREINCUBATION (KCL-CONTAINING MEDIUM)): active; positive
- mutagenic call (Test System: AMES SALMONELLA TYPHIMURIUM, Strain/Indicator: TA100, Metabolic Activation: NONE, Method: PREINCUBATION (KCL-FREE MEDIUM)): active; positive
